Reference: patent US20250018046A1, “COMPOUNDS FOR TARGETING DEGRADATION OF IRAK4 PROTEINS” (BIOGEN MA INC, priority 2021, published 2025)

biological target: T1, IRAK4 (Homo sapiens, UniProt Q9NWZ3); experiment: IRAK4 degradation assay using the HiBiT Method; assay type: cell-based; settings: 293T cells expressing HiBiT-tagged IRAK4; 6-hour incubation; Nano-Glo HiBiT Lytic Assay luminescence
T1 construct: knocking-in a HiBiT fusion tag into the C-terminal of the IRAK4 gene in 293T cells; host or cells: 293T cells, knock-in of HiBiT at the endogenous IRAK4 locus
T1 sequence (Q9NWZ3 1-460): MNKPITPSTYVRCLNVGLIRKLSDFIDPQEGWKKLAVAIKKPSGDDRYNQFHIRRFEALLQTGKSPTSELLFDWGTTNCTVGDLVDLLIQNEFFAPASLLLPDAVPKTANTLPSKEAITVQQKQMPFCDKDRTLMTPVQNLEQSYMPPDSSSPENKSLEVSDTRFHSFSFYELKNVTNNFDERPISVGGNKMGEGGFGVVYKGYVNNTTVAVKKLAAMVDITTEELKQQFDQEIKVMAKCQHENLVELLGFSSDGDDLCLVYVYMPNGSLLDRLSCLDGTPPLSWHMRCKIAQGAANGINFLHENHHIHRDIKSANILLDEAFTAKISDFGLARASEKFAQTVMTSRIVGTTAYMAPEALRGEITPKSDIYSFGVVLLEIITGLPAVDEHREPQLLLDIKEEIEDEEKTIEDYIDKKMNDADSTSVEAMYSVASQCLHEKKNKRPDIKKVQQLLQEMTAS
How it was run: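 HEK293T cells with HiBiT knocked into the IRAK4 C-terminus, 10,000 cells per well, treated with an 11-point half-log series […] in duplicate for 6 hours at 37° C., 5% CO2. Remaining IRAK4 quantified by Nano-Glo HiBiT lytic luminescence against DMSO controls.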

Structure (SMILES) | DC50 [nM]
CC(C)Oc1cc2nc(C3CCN(CCN4CCC(c5ccc(CN6CCC(=O)NC6=O)cc5)CC4)CC3)cn2cc1NC(=O)c1cccc(C(F)(F)F)n1 [Example 62, N-[2-[1-[2-[4-[4-[(2,4-dioxohexahydropyrimidin-1-yl)methyl]phenyl]-1-piperidyl]ethyl]-4-piperidyl]-7-isopropoxy-imidazo[1,2-a]pyridin-6-yl]-6-(trifluoromethyl)pyridine-2-carboxamide] | 100 to 500
CC(C)Oc1cc2nc(C3CCN(CCN4CCC(c5ccc(C6CCC(=O)NC6=O)cc5F)CC4)CC3)cn2cc1NC(=O)c1cccc(C(F)(F)F)n1 (stereo not drawn) [Example 64, N-[2-[1-[2-[4-[4-(2,6-dioxo-3-piperidyl)-2-fluoro-phenyl]-1-piperidyl]ethyl]-4-piperidyl]-7-isopropoxy-imidazo[1,2-a]pyridin-6-yl]-6-(trifluoromethyl)pyridine-2-carboxamide] | 100 to 500
CC(C)Oc1cc2nc(C3CCN(CCN4CCN(c5ccc(C6CCC(=O)NC6=O)cc5)CC4)CC3)cn2cc1NC(=O)c1cccc(C(F)(F)F)n1 (stereo not drawn) [Example 65, N-[2-[1-[2-[4-[4-(2,6-dioxo-3-piperidyl)phenyl]piperazin-1-yl]ethyl]-4-piperidyl]-7-isopropoxy-imidazo[1,2-a]pyridin-6-yl]-6-(trifluoromethyl)pyridine-2-carboxamide] | 10 to 100
CC(C)Oc1cc2nc(C3CCN(CCN4CCC(c5ccc(NC6CCC(=O)NC6=O)cc5F)CC4)CC3)cn2cc1NC(=O)c1cccc(C(F)(F)F)n1 (stereo not drawn) [Example 67, N-[2-[1-[2-[4-[4-[(2,6-dioxo-3-piperidyl)amino]-2-fluoro-phenyl]-1-piperidyl]ethyl]-4-piperidyl]-7-isopropoxy-imidazo[1,2-a]pyridin-6-yl]-6-(trifluoromethyl)pyridine-2-carboxamide] | 100 to 500
CC(C)Oc1cc2nc(C3CCN(CCc4ccc(NC5CCC(=O)NC5=O)cc4)CC3)cn2cc1NC(=O)c1cccc(C(F)(F)F)n1 (stereo not drawn) [Example 68, N-[2-[1-[2-[4-[(2,6-dioxo-3-piperidyl)amino]phenyl]ethyl]-4-piperidyl]-7-isopropoxy-imidazo[1,2-a]pyridin-6-yl]-6-(trifluoromethyl)pyridine-2-carboxamide] | 10 to 100
CC(C)Oc1cc2nc(C3CCN(CCCCc4ccc(NC5CCC(=O)NC5=O)cc4)CC3)cn2cc1NC(=O)c1cccc(C(F)(F)F)n1 (stereo not drawn) [Example 69, N-[2-[1-[4-[4-[(2,6-dioxo-3-piperidyl)amino]phenyl]butyl]-4-piperidyl]-7-isopropoxy-imidazo[1,2-a]pyridin-6-yl]-6-(trifluoromethyl)pyridine-2-carboxamide] | 100 to 500
CC(C)Oc1cc2nc(C3CCN(CCCCCCc4ccc(NC5CCC(=O)NC5=O)cc4)CC3)cn2cc1NC(=O)c1cccc(C(F)(F)F)n1 (stereo not drawn) [Example 70, N-[2-[1-[6-[4-[(2,6-dioxo-3-piperidyl)amino]phenyl]hexyl]-4-piperidyl]-7-isopropoxy-imidazo[1,2-a]pyridin-6-yl]-6-(trifluoromethyl)pyridine-2-carboxamide] | 100 to 500
CC(C)Oc1cc2nc(CCCNC(=O)CN3CCC(c4ccc(NC5CCC(=O)NC5=O)cc4)CC3)cn2cc1NC(=O)c1cccc(C(F)(F)F)n1 (stereo not drawn) [Example 71, N-[2-[3-[[2-[4-[4-[(2,6-dioxo-3-piperidyl)amino]phenyl]-1-piperidyl]acetyl]amino]propyl]-7-isopropoxy-imidazo[1,2-a]pyridin-6-yl]-6-(trifluoromethyl)pyridine-2-carboxamide] | 100 to 500
CC(C)Oc1cc2nc(CCCCCCN3CCC(c4ccc(NC5CCC(=O)NC5=O)cc4)CC3)cn2cc1NC(=O)c1cccc(C(F)(F)F)n1 (stereo not drawn) [Example 72, N-[2-[6-[4-[4-[(2,6-dioxo-3-piperidyl)amino]phenyl]-1-piperidyl]hexyl]-7-isopropoxy-imidazo[1,2-a]pyridin-6-yl]-6-(trifluoromethyl)pyridine-2-carboxamide] | 100 to 500
CC(C)Oc1cc2nc([C@H](Cc3ccccc3)NC(=O)CN3CCC(c4ccc(C5CCC(=O)NC5=O)cc4)CC3)cn2cc1NC(=O)c1cccc(C(F)(F)F)n1 (stereo partly drawn) [Example 73, N-[2-[(1S)-1-[[2-[4-[4-(2,6-dioxo-3-piperidyl)phenyl]-1-piperidyl]acetyl]amino]-2-phenyl-ethyl]-7-isopropoxy-imidazo[1,2-a]pyridin-6-yl]-6-(trifluoromethyl)pyridine-2-carboxamide] | 100 to 500
CC(C)Oc1cc2nc(CC3CN(C(=O)CN4CCC(c5ccc(C6CCC(=O)NC6=O)cc5)CC4)C3)cn2cc1NC(=O)c1cccc(C(F)(F)F)n1 (stereo not drawn) [Example 74, N-[2-[[1-[2-[4-[4-(2,6-dioxo-3-piperidyl)phenyl]-1-piperidyl]acetyl]azetidin-3-yl]methyl]-7-isopropoxy-imidazo[1,2-a]pyridin-6-yl]-6-(trifluoromethyl)pyridine-2-carboxamide] | 100 to 500
CC(C)Oc1cc2nc(C3CCN(C(=O)CN4CCC(c5ccc(C6CCC(=O)NC6=O)cc5)CC4)C3)cn2cc1NC(=O)c1cccc(C(F)(F)F)n1 (stereo not drawn) [Example 75, N-[2-[1-[2-[4-[4-(2,6-dioxo-3-piperidyl)phenyl]-1-piperidyl]acetyl]pyrrolidin-3-yl]-7-isopropoxy-imidazo[1,2-a]pyridin-6-yl]-6-(trifluoromethyl)pyridine-2-carboxamide] | 10 to 100
CC(C)Oc1cc2nc(C3CCCN(C(=O)CN4CCC(c5ccc(C6CCC(=O)NC6=O)cc5)CC4)C3)cn2cc1NC(=O)c1cccc(C(F)(F)F)n1 (stereo not drawn) [Example 76, N-[2-[1-[2-[4-[4-(2,6-dioxo-3-piperidyl)phenyl]-1-piperidyl]acetyl]-3-piperidyl]-7-isopropoxy-imidazo[1,2-a]pyridin-6-yl]-6-(trifluoromethyl)pyridine-2-carboxamide] | 100 to 500
CC(C)Oc1cc2nc(C3CN(C(=O)CN4CCC(c5ccc(C6CCC(=O)NC6=O)cc5)CC4)C3)cn2cc1NC(=O)c1cccc(C(F)(F)F)n1 (stereo not drawn) [Example 77, N-[2-[1-[2-[4-[4-(2,6-dioxo-3-piperidyl)phenyl]-1-piperidyl]acetyl]azetidin-3-yl]-7-isopropoxy-imidazo[1,2-a]pyridin-6-yl]-6-(trifluoromethyl)pyridine-2-carboxamide] | 100 to 500

Further lines, results first:

DC50 [nM] | Structure (SMILES)
100 to 500 | CC(C)Oc1cc2nc(C3CCN(CC(=O)N4CCC(c5ccc(NC6CCC(=O)NC6=O)cc5)CC4)CC3)cn2cc1NC(=O)c1ccccc1 (stereo not drawn) [Example 56, N-[2-[1-[2-[4-[4-[(2,6-dioxo-3-piperidyl)amino]phenyl]-1-piperidyl]-2-oxo-ethyl]-4-piperidyl]-7-isopropoxy-imidazo[1,2-a]pyridin-6-yl]benzamide]
< 10 | CC(C)Oc1cc2nc(C3CCN(CC(=O)N4CCC(c5ccc(NC6CCC(=O)NC6=O)cc5)CC4)CC3)cn2cc1NC(=O)c1cnn2cccnc12 (stereo not drawn) [Example 57, N-(2-(1-(2-(4-(4-((2,6-dioxopiperidin-3-yl)amino)phenyl)piperidin-1-yl)-2-oxoethyl)piperidin-4-yl)-7-isopropoxyimidazo[1,2-a]pyridin-6-yl)pyrazolo[1,5-a]pyrimidine-3-carboxamide]
10 to 100 | Cc1cc(-c2nc(C(=O)Nc3cn4cc(C5CCN(CC(=O)N6CCC(c7ccc(NC8CCC(=O)NC8=O)cc7)CC6)CC5)nc4cc3OC(C)C)co2)ccn1 (stereo not drawn) [Example 58, N-(2-(1-(2-(4-(4-((2,6-dioxopiperidin-3-yl)amino)phenyl)piperidin-1-yl)-2-oxoethyl)piperidin-4-yl)-7-isopropoxyimidazo[1,2-a]pyridin-6-yl)-2-(2-methylpyridin-4-yl)oxazole-4-carboxamide]
10 to 100 | CC(C)Oc1cc2nc(C3CCN(CC(=O)N4CCC(c5ccc(NC6CCC(=O)NC6=O)cc5)CC4)CC3)cn2cc1NC(=O)c1ccc(F)cc1F (stereo not drawn) [Example 59, N-(2-(1-(2-(4-(4-((2,6-dioxopiperidin-3-yl)amino)phenyl)piperidin-1-yl)-2-oxoethyl)piperidin-4-yl)-7-isopropoxyimidazo[1,2-a]pyridin-6-yl)-2,4-difluorobenzamide]
10 to 100 | CC(C)Oc1cc2nc(C3CCN(CC(=O)N4CCC(c5ccc(NC6CCC(=O)NC6=O)cc5)CC4)CC3)cn2cc1NC(=O)c1ccn(C)n1 (stereo not drawn) [Example 60, N-[2-[1-[2-[4-[4-[(2,6-dioxo-3-piperidyl)amino]phenyl]-1-piperidyl]-2-oxo-ethyl]-4-piperidyl]-7-isopropoxy-imidazo[1,2-a]pyridin-6-yl]-1-methyl-pyrazole-3-carboxamide]
10 to 100 | CC(C)Oc1cc2nc(C3CCN(CC(=O)N4CCC(c5ccc(NC6CCC(=O)NC6=O)cc5)CC4)CC3)cn2cc1NC(=O)c1cccc(C(F)F)c1 (stereo not drawn) [Example 61, 3-(difluoromethyl)-N-(2-(1-(2-(4-(4-((2,6-dioxopiperidin-3-yl)amino)phenyl)piperidin-1-yl)-2-oxoethyl)piperidin-4-yl)-7-isopropoxyimidazo[1,2-a]pyridin-6-yl)benzamide]
100 to 500 | CC(C)Oc1cc2nc(C3CCN(CCN4CCC(c5ccc(NC6CCC(=O)NC6=O)cc5)CC4)CC3)cn2cc1NC(=O)c1cccc(C(F)(F)F)n1 (stereo not drawn) [Example 66, N-[2-[1-[2-[4-[4-[(2,6-dioxo-3-piperidyl)amino]phenyl]-1-piperidyl]ethyl]-4-piperidyl]-7-isopropoxy-imidazo[1,2-a]pyridin-6-yl]-6-(trifluoromethyl)pyridine-2-carboxamide]
